# Measured values as given in ChEMBL document CHEMBL1125390, “Design and synthesis of novel 6,7-imidazotetrahydroquinoline inhibitors of thymidylate synthase using iterative protein crystal structure analysis” (J Med Chem, 1992).
# Assays:
# [1] = system: CCRF-CEM; assay: Compound was tested for the inhibition of human CCRF-CEM leukemia cell growth
# [2] = system: GC3M(-); assay: Compound was tested for the inhibition of thymidine kinase deficient human adenocarcinoma GC3M(-) cell growth
# [3] = system: L1210; assay: Compound was tested for the inhibition of mouse L1210 leukemia cell growth
# [4] = target: Thymidylate synthase (Escherichia coli, UniProt C3SWJ7)
# Chain of Thymidylate synthase (C3SWJ7 whole entry): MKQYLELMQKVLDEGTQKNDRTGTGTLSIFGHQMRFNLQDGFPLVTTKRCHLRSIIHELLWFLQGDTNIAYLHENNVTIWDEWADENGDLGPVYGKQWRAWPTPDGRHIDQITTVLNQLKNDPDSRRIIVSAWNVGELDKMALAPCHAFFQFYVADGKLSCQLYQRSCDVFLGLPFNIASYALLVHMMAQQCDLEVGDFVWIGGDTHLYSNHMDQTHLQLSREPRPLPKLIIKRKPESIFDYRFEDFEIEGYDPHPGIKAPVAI
# Description: Inhibition of Escherichia coli Thymidylate synthase (TS)
# [5] = system: GC3M(-); assay: Compound was evaluated for cellular growth inhibition in thymidine kinase deficient human adenocarcinoma GC3M(-) cell line
SMILES,IC50 [1],IC50 [3],Ki [4],IC50 [2],IC50 [5]
CNc1nc2cc3c(cc2[nH]1)N(Cc1ccc(S(=O)(=O)c2ccccc2)cc1)CCC3,3.3 µM,3 µM,8.5 µM,> 5 µM,–
O=S(=O)(c1ccc(CN2CCCc3cc4[nH]cnc4cc32)cc1)N1CCNCC1,–,–,–,43 µM,–
Nc1nc2cc3c(cc2[nH]1)N(Cc1ccc(S(=O)(=O)N2CCOCC2)cc1)CCC3,4 µM,4 µM,–,8.6 µM,–
Nc1nc2cc3c(cc2[nH]1)N(Cc1ccc(S(=O)(=O)c2ccc(O)cc2)cc1)CCC3,22 µM,12 µM,–,–,> 50 µM
Nc1nc2cc3c(cc2[nH]1)CCCC3Sc1ccc(S(=O)(=O)c2ccccc2)cc1 (configuration not stated),> 10 µM,7.5 µM,–,> 10 µM,–
Nc1nc2cc3c(cc2[nH]1)N(Cc1ccc(S(=O)(=O)c2ccccc2)cc1)CCC3,–,–,–,> 5 µM,–
CSc1nc2cc3c(cc2[nH]1)N(Cc1ccc(S(=O)(=O)c2ccccc2)cc1)CCC3,> 10 µM,> 10 µM,> 3 µM,> 10 µM,–
Nc1nc2cc3c(cc2[nH]1)N(Cc1ccc(C(=O)NC(CCC(=O)O)C(=O)O)cc1)CCC3 (configuration not stated),40 µM,20 µM,–,–,> 50 µM

# Further compounds by falling IC50 [3], results first:
IC50 [1],IC50 [3],Ki [4],SMILES,IC50 [2],IC50 [5]
> 5 µM,3.1 µM,–,Nc1nc2cc3c(cc2[nH]1)N(Cc1ccc2cc(CO)ccc2c1)CCC3,> 5 µM,–
8 µM,2.8 µM,1.3 µM,COc1ccc(S(=O)(=O)c2ccc(CN3CCCc4cc5nc(C)[nH]c5cc43)cc2)cc1,4.1 µM,–
5.1 µM,2.6 µM,–,COc1ccc(S(=O)(=O)c2ccc(CN3CCCc4cc5[nH]c(N)nc5cc43)cc2)cc1,9 µM,–
–,2 µM,–,Nc1nc2cc3c(cc2[nH]1)N(Cc1ccc(S(=O)(=O)N2CCNCC2)cc1)CCC3,> 50 µM,–
1.8 µM,1.05 µM,5.2 µM,COc1ccc(S(=O)(=O)c2ccc(CN3CCCc4cc5c(cc43)nc(C)n5C)cc2)cc1,> 5 µM,–
0.9 µM,0.5 µM,0.5 µM,COc1ccc(S(=O)(=O)c2ccc(CN3CCCc4cc5c(cc43)nc(N)n5C)cc2)cc1,3 µM,–
